Data set [1] addresses T1, EaAmsI (AmsI, Low Molecular Weight Protein Tyrosine Phosphatase) (Erwinia amylovora, UniProt Q46630).
T1 construct: recombinant EaAmsI (gene from strain Ea273, pETM-11 vector)
In words: pNPP hydrolysis at […] nm, Michaelis-Menten global fit with competitive inhibition model. The format is biochemical.

Data set [2] has as its target T1, EaAmsI (AmsI, Low Molecular Weight Protein Tyrosine Phosphatase). In words: pNPP hydrolysis, dose-response IC50. The format is biochemical.
For data set [3], the system named is O=[N+]([O-])c1ccc(OP(=O)(O)O)cc1. The data set can be described thus: purified protein.

T1 sequence (Q46630 whole entry): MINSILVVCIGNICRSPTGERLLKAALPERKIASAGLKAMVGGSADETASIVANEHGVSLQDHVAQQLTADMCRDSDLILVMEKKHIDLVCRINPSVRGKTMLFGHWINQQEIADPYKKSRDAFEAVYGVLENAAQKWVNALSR

A word on the Ki: it is the equilibrium dissociation constant of an inhibitor or competing ligand from its target. A high value points to lower affinity. With `CCCCCCCO[C@@H]1O[C@H](CO)[C@@H](O)[C@H](O)[C@H]1O` [N7G, (2R,3R,4S,5S,6R)-2-(heptyloxy)-6-(hydroxymethyl)oxane-3,4,5-triol], the Ki in data set [1] is 0.0078 ± 0.0006 mM.
The term IC50 denotes the concentration that gives 50% inhibition. For `CCCCCCCCO[C@@H]1O[C@H](CO)[C@@H](O)[C@H](O)[C@H]1O` [N8G, (2R,3S,4S,5R,6R)-2-(hydroxymethyl)-6-(octyloxy)oxane-3,4,5-triol], the IC50 in data set [2] worked out at 9.5 ± 1.3 mM.
The Km is the substrate concentration at which the rate is half of its maximum. Take “EaAmsI (AmsI, Low Molecular Weight Protein Tyrosine Phosphatase) (Erwinia amylovora)”: the Km in data set [3] is 15.1 ± 1.3 mM.

For the origin of these results see PMC10708540, “Determination and Kinetic Characterization of a New Potential Inhibitor for AmsI Protein Tyrosine Phosphatase from the Apple Pathogen Erwinia amylovora” (Molecules, 2023).
